Where two headings read alike, the source gives them in different places.
How the values were obtained:
[1] = Stability test of compounds in Simulated Gastric Fluid (SGF); type: in vitro ADME; conditions: for Stability in SGF (in words): 24 hours; for Remaining of Test Compound (%): SGF pH about 1.20, 37° C., 2 μM
Method: The pH of the test solution was about 1.20±0.05.
(§3) Then 200 μL of supernatant was pipetted and mixed completely again with 400 μL of cold acetonitrile containing 200 ng/mL tolbutamide (internal standard). • 7) All samples were centrifuged at 4000 rpm, 4° C. for 20 min. • 8) 60 μL of supernatant was pipetted and mixed with 180 μL of ultra-pure water, and the mixture was mixed completely for LC-MS/MS analysis.

[2] = Simulated metabolic test of compounds in Human Intestine S9; type: in vitro ADME; conditions: for Remaining of Test Compound (%): HIS9 0.5 mg/mL, 37° C.
Method: Preparation of Phosphate Buffer (PB): Dissolve 73.21 g K2TIPO4·3H2O (AR grade) and 10.78 g KH2PO4 (AR grade) in ultra-pure water to make the final volume to 4000 mL and the final concentration to 100 mM. The pH of the final test solution was adjusted to pH 7.40±0.10 with H3PO4/KOH.
An Apricot automation workstation was used to add 50 μL/well of HIS9 solution to the corresponding wells of all reaction plates (blank, T0, T5, T15, T30, T45, T60).
Using an Apricot automation workstation, 2 μL/well of test compound working solution was added to the corresponding wells of all 96-well reaction plates except the blank (T0, T5, T15, T30, T45, T60).
An Apricot automation workstation was used to add 48 μL/well of PB to the corresponding wells of every reaction plate (Blank, T0, T5, T15, T30, T45, T60) to start the reaction.
The reaction plates were incubated at 37° C., and timer was started. An Apricot automation workstation was used to add 300 μL/well of stop solution (cold acetonitrile containing 200 ng/mL tolbutamide (internal standard)) to the corresponding wells of each reaction plate at its appropriate end time point to terminate the reaction.
Each plate was sealed and shaken for 10 minutes. After shaking, each plate was centrifuged at 4000 rpm and 4° C. for 20 minutes. After centrifugation, 100 μL of supernatant was transferred from each reaction plate to its corresponding bioanaylsis plate, and mixed well with 300 μL ultra-pure water.

[3] = Pharmacokinetic studies in male SD rats (IV bolus and gavage); conditions: rat, in vivo
Method: Samples were placed on wet ice until centrifugation (within 30 min). […] Supernatant plasma was pipetted, then quickly frozen over dry ice and kept at −60° C. or lower temperature until LC-MS/MS analysis.

[4] = test system: C57BL/6J mice; assay: Oral glucose tolerance test (OGTT), blood glucose; type: in vivo; conditions: for AUC0-120min of blood glucose vs vehicle control group / BG values after glucose treatment vs HMS5552-40 mg/kg group / BG values after glucose treatment vs vehicle control group / AUC0-120min of blood glucose vs corresponding groups of HMS5552: OGTT; for AUC0-120min of blood glucose vs vehicle control group: all low, middle, high dose groups; for AUC0-120min of blood glucose vs vehicle control group / BG values after glucose treatment vs HMS5552-40 mg/kg group / BG values after glucose treatment vs vehicle control group / AUC0-120min of blood glucose vs corresponding groups of HMS5552 / BG values at 0 min (pre-glucose) vs vehicle control group: PO; for BG values after glucose treatment vs HMS5552-40 mg/kg group: high dose group (Compound 3 49.1, Compound 6 46.1, Compound 7 48.6 mg/kg); for BG values after glucose treatment vs vehicle control group: high dose group (HMS5552 40 mg/kg; Compound 3 49.1 mg/kg); for AUC0-120min of blood glucose vs corresponding groups of HMS5552: middle and high dose levels (equimolar to 15 and 40 mg/kg HMS5552); for BG values at 0 min (pre-glucose) vs vehicle control group: all treatment groups, 1 hour after administration
Method: (§1) 104 C57BL/6J mice were randomly divided into 13 groups according to body weight, 8 mice per group. The first group were administered with vehicle solvent (5 mL/kg, PO) as the control group, other groups were administered with corresponding concentration of test compounds (5 mL/kg, PO). […] The oral glucose tolerance test (OGTT) was performed 1 hour after administration of test compounds. Blood glucose (BG) were measured at −60 min (pre-dose), 0 min (pre-glucose), 15 min, 30 min, 60 min and 120 min after glucose treatment. Blood samples (40 μl) were collected from tail veins at 0 min (pre-glucose), and 15 min (post-glucose) to separate plasma for insulin detection.
(§2) All data was transferred into an Excel spreadsheet. Blood glucose was expressed in mg/dL. All values were expressed as Mean±SEM. The significance of the differences between groups were evaluated by one-way ANOVA or two-way ANOVA followed by Dunnett's multiple comparisons test or Tukey's multiple comparisons test using GraphPad Prism 8. A p value of less than 0.05 is considered statistically significant.

[5] = test system: C57BL/6J mice; assay: Plasma insulin levels during OGTT; type: in vivo; conditions: for Insulin levels at 0 min vs vehicle control group and HMS5552-40 mg/kg group: 0 min (pre-glucose); for Insulin levels at 15 min vs vehicle control group / Insulin levels at 15 min vs corresponding groups of HMS5552: 15 min post-glucose
Method: as §1, §2

[6] = for Remaining of Test Compound (%): SIF pH about 6.80, 37° C., 2 μM
Method: Preparation of Simulated Intestinal Fluid (SIF): Dissolve 0.136 g KH2PO4 and 0.2 g pancreatin with water and make up the final volume to 20 mL. The pH of the test solution was about 6.80±0.05.
as §3

[7] = test system: Caco-2 cells; assay: Bi-directional permeability test using Caco-2 cells; conditions: for The average Apparent Permeability Papp A→B: 2 hours, pH 7.40
[8] = high dose (Compound 3 49.1, Compound 6 46.1, Compound 7 48.6 mg/kg)
[9] = middle dose (Compound 3 18.4, Compound 7 18.2 mg/kg)
[10] = Caco-2, Compound 3 concentration 2.00 μM
[11] = Caco-2, Compound 3 concentration 10.0 μM
[12] = Caco-2, Compound 3 concentration 30.0 μM
[13] = high dose (Compound 6 46.1, Compound 7 48.6 mg/kg)

Row | Compound | Stability in SGF (in words) [1] | Metabolism in human intestinal S9 (in words) ([2]; HIS9) | Remaining of Test Compound (%) ([2]; time point 5 min) | Remaining of Test Compound (%) ([2]; time point 15 min) | Remaining of Test Compound (%) ([2]; time point 30 min) | Remaining of Test Compound (%) ([2]; time point 45 min) | Remaining of Test Compound (%) ([2]; time point 60 min) | Metabolism after intravenous injection (in words) [3] | Insulin secretion and glucose-lowering effect as compared to HMS5552 (in words) [4] | AUC0-120min of blood glucose vs vehicle control group [4] | BG values after glucose treatment vs HMS5552-40 mg/kg group [4] | BG values after glucose treatment vs vehicle control group [4] | AUC0-120min of blood glucose vs corresponding groups of HMS5552 [4] | BG values at 0 min (pre-glucose) vs vehicle control group [4] | Insulin levels at 0 min vs vehicle control group and HMS5552-40 mg/kg group [5, 8] | Insulin levels at 15 min vs vehicle control group [5, 8] | Insulin levels at 15 min vs vehicle control group [5, 9] | Degradation in SIF (in words) [6] | Insulin levels at 15 min vs corresponding groups of HMS5552 [5, 13] | other results
1 | CC(C)C[C@@H](C(=O)Nc1ccn(C[C@@H](O)COC(=O)c2cccnc2)n1)N1CC(Oc2ccccc2Cl)=CC1=O [Compound 3] | stable in SGF for 24 hours | well metabolized in human intestinal S9 | 0 | 0 | 0 | 0 | 0 | metabolized very rapidly in rats by intravenous injection | increased insulin secretion and greater glucose-lowering effect as compared to HMS5552 | significantly lower than the vehicle control group, with dose-response relationship | significantly lower than HMS5552-40 mg/kg group at 30 min, 60 min, and 120 min | significantly lower than the vehicle control group at 15 min, 30 min, 60 min, and 120 min | significantly lower than the corresponding groups of HMS5552 (P<0.01) | overall lower than the vehicle control group, with dose-response relationship | significantly higher than the vehicle control group and HMS5552-40 mg/kg group at 0 min | significantly higher than the vehicle control group at 15 min | significantly higher than the vehicle control group at 15 min | extensively degraded in SIF |  | Time within which completely metabolized and converted into parent drug HMS5552 ([2]; HIS9): ≤ 5 min; clearance ([3]; male SD rats, IV bolus 10 mg/kg, analyte prodrug): 290 mL/min/kg; Tmax ([3]; male SD rats, PO 30 mg/kg, analyte prodrug, read-out: Tmax (median)): 15 min; Insulin levels at 15 min vs corresponding groups of HMS5552 ([5]; middle dose (Compound 3 18.4 mg/kg)): significantly higher than the corresponding groups of HMS5552 at 15 min; Average Recovery Rate (%) A→B [7, 10]: 52.9%; Average Recovery Rate (%) B→A [7, 10]: 87.1%; The average Apparent Permeability Papp A→B [7, 10]: 0.02977 10^−6 cm/s; Average Recovery Rate (%) A→B [7, 11]: 37.5%; Average Recovery Rate (%) B→A [7, 11]: 81.6%; The average Apparent Permeability Papp A→B [7, 11]: 0.03187 10^−6 cm/s; Average Recovery Rate (%) B→A [7, 12]: 82.2%; The average Apparent Permeability Papp A→B [7, 12]: 0.04322 10^−6 cm/s
2 | CC(C)C[C@@H](C(=O)Nc1ccn(C[C@@H](O)COC(=O)[C@H](C)N)n1)N1CC(Oc2ccccc2Cl)=CC1=O [Compound 6] |  |  |  |  |  |  |  |  | increased insulin secretion and greater glucose-lowering effect as compared to HMS5552 | significantly lower than the vehicle control group, with dose-response relationship | significantly lower than HMS5552-40 mg/kg group at 15 min, 30 min, 60 min, and 120 min |  | significantly lower than the corresponding groups of HMS5552 (P<0.01) | overall lower than the vehicle control group, with dose-response relationship | significantly higher than the vehicle control group and HMS5552-40 mg/kg group at 0 min | significantly higher than the vehicle control group at 15 min |  |  | significantly higher than the corresponding groups of HMS5552 at 15 min | 
3 | CC(C)C[C@@H](C(=O)Nc1ccn(C[C@@H](O)COC(=O)[C@@H](N)C(C)C)n1)N1CC(Oc2ccccc2Cl)=CC1=O [Compound 7] | stable in SGF for 24 hours | well metabolized in human intestinal S9 | 30.7 | 18.8 | 7.2 | 3.9 | 2.7 | metabolized very rapidly in rats by intravenous injection | increased insulin secretion and greater glucose-lowering effect as compared to HMS5552 | significantly lower than the vehicle control group, with dose-response relationship | significantly lower than HMS5552-40 mg/kg group at 15 min, 30 min, 60 min, and 120 min |  | significantly lower than the corresponding groups of HMS5552 (P<0.01) | overall lower than the vehicle control group, with dose-response relationship | significantly higher than the vehicle control group and HMS5552-40 mg/kg group at 0 min | significantly higher than the vehicle control group at 15 min | significantly higher than the vehicle control group at 15 min | extensively degraded in SIF | significantly higher than the corresponding groups of HMS5552 at 15 min | Remaining of Test Compound (%) ([1]; time point 0 hr): 100.00%; Remaining of Test Compound (%) ([1]; time point 1 hr): 103.14%; Remaining of Test Compound (%) ([1]; time point 2 hr): 104.44%; Remaining of Test Compound (%) ([1]; time point 6 hr): 102.68%; Remaining of Test Compound (%) ([1]; time point 24 hr): 108.07%; Remaining of Test Compound (%) ([2]; time point 0 min): 100%; Exposures (Cmax, Cmax ratio, AUC, AUC ratio) when administered orally vs parent drug (in words) ([3]; male, SD, po): comparable to the parent drug HIMS5552; Remaining of Test Compound (%) ([6]; time point 0 hr): 100.00%; Remaining of Test Compound (%) ([6]; time point 1 hr): 25.13%; Remaining of Test Compound (%) ([6]; time point 2 hr): 3.50%; Remaining of Test Compound (%) ([6]; time point 6 hr): 4.88%; Remaining of Test Compound (%) ([6]; time point 24 hr): 0.00%
4 | CC(C)C[C@@H](C(=O)Nc1ccn(C[C@@H](O)CO)n1)N1CC(Oc2ccccc2Cl)=CC1=O [HMS5552, (S)-2-[4-(2-chloro-phenoxy)-2-oxo-2,5-dihydro-pyrrol-1-yl]-4-methyl-pentanoic acid [1-((R)-2,3-dihydroxy-propyl)-1H-pyrazol-3-yl]-amide, reference compound] |  |  |  |  |  |  |  |  |  | significantly lower than the vehicle control group, with dose-response relationship |  | significantly lower than the vehicle control group at 30 min, 60 min and 120 min |  | overall lower than the vehicle control group, with dose-response relationship |  |  |  |  |  | Insulin levels vs vehicle control group ([5]; HMS5552 groups, 0 min and 15 min): slightly higher than the vehicle control group at 0 min and 15 min, without significant difference

— patent US12054477B2, “Prodrug of pyrrolidone derivatives as glucokinase activator” (HUA MEDICINE (SHANGHAI) LTD., priority 2021, dated 2024)
